Type in all cases: in vivo, Sprague Dawley rats
The test system of one test is cardiac myocytes. The experiment in a line: Cardiac myocyte apoptosis in heart sections (TUNEL assay and cleaved caspase-3 staining). The note with it: STZ-diabetic rats; for Caspase-3 staining, Mean / TUNEL assay, Mean: 7 days of treatment, heart sections; for Caspase-3 staining, Mean: control 7, diabetic no treatment 28; for TUNEL assay, Mean: control 8.5, diabetic no treatment 33.

Test [1] has as its system Cardiac interstitial fibrosis. The experiment in a line: Cardiac interstitial fibrosis by Masson's trichrome staining, graded on a scale of 0-4. To be noted: for degree of fibrosis (average grade): STZ-diabetic rats after one week of diabetes, scale 0-4, diabetic untreated grade 1.5, control grade 0; for diabetes-induced cardiac fibrosis (result in words): diabetic rats, summary statement. The protocol:
(§1) Diabetes is induced by a single injection of streptozotocin (STZ, 65 mg/kg body weight, IP) dissolved in 0.1 M sodium citrate buffered saline (pH 4.5), in adult male Sprague Dawley rats (250-300 g). Control animals receive buffered saline alone. Diabetes is confirmed by sustained blood glucose levels >15 mmol/L, as determined 48 h after STZ injection and on alternate days thereafter. […] After 7 days, animals are weighed and anesthetized using ketamine/xylazine (50/5 mg/kg). Hearts are isolated and weighed before perfusion, the latter using the Langendorff methodology.
Cardiac interstitial fibrosis is determined by Masson's trichrome staining on 5 μm paraffin-embedded sections. The extent and degree of fibrosis is graded on a scale of 0-4. Grade 0 signifies no apparent collagen fiber proliferation except for small islets of fibrous tissue around the capillaries, as well as an intercellular single layer of collagenous tissue, as in normal myocardium. Focal and minimal fibrosis is graded as 1, mild patchy fibrosis as grade 2, moderate diffuse fibrosis as grade 3 and the most prominent fibrosis, covering major area of the specimen, is classified as 4. A minimum of three sections per heart, with five fields per section, and three animals per experimental group, are analyzed and results presented as an average grade.
After one week of diabetes, the overall staining for fibrosis is enhanced in hearts from diabetic rats (grade 1.5), compared to control animals (grade 0). […] Candesartan and benazepril reduces the degree of fibrosis (grade 0.43 and 0.88, respectively), whereas aliskiren has a more pronounced reduction of fibrosis (grade 0.25) in diabetic rat hearts.

In test [2] the test system is Superoxide production in the hearts. The experiment in a line: Reactive oxygen species detection in the heart by dihydroethidium (DHE) staining. The note with it: STZ-diabetic rats; for DHE fluorescence, Mean: 7 days of treatment, frozen heart sections, 10 μM DHE, control 17.65, diabetic no treatment 68.6; for superoxide production / oxidative stress (result in words): DHE staining of heart sections.

The subject of test [3] is intracellular Ang II (iAng II) in cardiac myocytes. Kind of test: Measurement of iAng II in cardiac myocytes isolated from STZ-diabetic rat hearts (competitive ELISA). The note with it: for iAng II levels in cardiac myocytes: STZ-diabetic rats treated daily for 7 days (insulin 2-5 U BID SC; candesartan 1 mg/kg IP; aliskiren 30 mg/kg oral; benazepril 10 mg/kg oral), mean±SE, diabetic untreated 0.59±0.01, control 0.06±0.01; for iAng II synthesis, blocked or not (result in words): diabetic rats, summary statement. The protocol: as §1
Hearts are isolated and perfused with Krebs-Henseleit bicarbonate buffer, followed by digestion with collagenase II (0.1% w/v). Myocytes are separated from non-myocytes by differential centrifugation at 25×g. […] The pellet containing myocytes is processed for Ang II extraction, as described by Singh et al in Am J Physiol Heart Circ Physiol 293:H939-H948, 2007. Cells were lysed in ice-cold 1 M acetic acid, containing a protease inhibitor cocktail (Sigma), by sonication (2 pulses of 5 sec each). The lysate is sedimented at 20,000×g for 10 min and the supernatant is dried in a vacufuge, followed by reconstitution in 1% acetic acid. The samples are applied to a conditioned DSC-18 column (Supelco), washed, and eluted with methanol. The eluted samples are dried and reconstituted in PBS for ELISA. For isolation of Ang II from plasma, an equal volume of 2% acetic acid is added to plasma, followed by filtration through Amicon Ultra-15 filters. The filtrate is applied to DSC-18 columns and Ang II is eluted, as described for the cell lysates. […] Ang II is measured by quantitative, competitive ELISA, using a specific anti-Ang II antibody (Peninsula Labs), as previously described in Am J Physiol Heart Circ Physiol 293:H939-H948, 2007. ELISA is performed on protein-A and anti-Ang II antibody-coated 96-well dishes. Competitive binding of synthetic biotinylated Ang II, in the presence of the extracted peptide, is detected with streptavidin-horseradish peroxidase conjugate. A standard curve, generated from binding of a constant amount of biotinylated Ang II with increasing concentrations of non-biotinylated synthetic Ang II, is used to calculate the concentration of the peptide in the sample. The concentration of Ang II in the cell lysates is expressed as fmoles per milligram of heart wt and in plasma as fmoles per milligram of plasma proteins.
Ang II levels in cardiac myocytes, which are isolated after perfusion of the hearts and enzymatic dispersion, correspond to Ang II present intracellularly. To determine the source of iAng II, i.e., intracellular synthesis or AT1-mediated internalization, one group of diabetic animals is treated with the AT1 antagonist candesartan to prevent receptor-mediated uptake.
On the technique in general: ELISA stands for enzyme-linked immunosorbent assay.

Experimental findings from patent US20100093603A1, “USE OF ORGANIC COMPOUNDS” (priority 2008, published 2010) are described below.

For `COCCCOc1cc(C[C@@H](C[C@H](N)[C@@H](O)C[C@H](C(=O)NCC(C)(C)C(N)=O)C(C)C)C(C)C)ccc1OC` [aliskiren, 2(S),4(S),5(S),7(S)—N-(3-amino-2,2-dimethyl-3-oxopropyl)-2,7-di(1-methylethyl)-4-hydroxy-5-amino-8-[4-methoxy-3-(3-methoxy-propoxy)phenyl]-octanamide], in the test on cardiac myocytes, the “Caspase-3 staining, Mean” value is 18 positive cells/mm^2 and the “TUNEL assay, Mean” value is listed as 21.3 positive cells/mm^2. In addition, in test [1], the “degree of fibrosis (average grade)” value came out at 0.25 grade and the “diabetes-induced cardiac fibrosis (result in words)” value is recorded as “complete inhibition”. Moreover, in test [2], the “DHE fluorescence, Mean” value amounted to 22.7 Arbitrary units and the “superoxide production / oxidative stress (result in words)” value (“superoxide production / oxidative stress” for short) is recorded as “blocks it completely”. In addition, in test [3], the “iAng II levels in cardiac myocytes” value turned out to be 0.12±0.02 fmole/mg heart wt and the “iAng II synthesis, blocked or not (result in words)” value is “blocked”.
`CCOC(=O)[C@H](CCc1ccccc1)N[C@H]1CCc2ccccc2N(CC(=O)O)C1=O` [benazepril]: in the test on cardiac myocytes, the “Caspase-3 staining, Mean” value was 21 positive cells/mm^2 and the “TUNEL assay, Mean” value turned out to be 27 positive cells/mm^2. Also, in test [1], the “degree of fibrosis (average grade)” value turned out to be 0.88 grade and the “diabetes-induced cardiac fibrosis (result in words)” value is “partially inhibited”. Further, in test [2], the “DHE fluorescence, Mean” value is given as 51.4 Arbitrary units and the “superoxide production / oxidative stress” value is “reduces oxidative stress”. For the same compound, in test [3], the “iAng II levels in cardiac myocytes” value was 0.55±0.02 fmole/mg heart wt and the “iAng II synthesis, blocked or not (result in words)” value is “not”.
Consider `CCOc1nc2cccc(C(=O)O)c2n1Cc1ccc(-c2ccccc2-c2nnn[nH]2)cc1` [candesartan], for which, in the test with cardiac myocytes, the “Caspase-3 staining, Mean” value worked out at 18.5 positive cells/mm^2 and the “TUNEL assay, Mean” value is 24 positive cells/mm^2. Further, in test [1], the “degree of fibrosis (average grade)” value turned out to be 0.43 grade. Further, the “DHE fluorescence, Mean” value in test [2] is reported as 37.7 Arbitrary units. Moreover, in test [3], the “iAng II levels in cardiac myocytes” value is 0.43±0.05 fmole/mg heart wt.
Regarding “insulin: type 1 diabetes therapeutic agent, used to normalize blood glucose in STZ-treated rats”, in the test on cardiac myocytes, the “Caspase-3 staining, Mean” value stood at 14 positive cells/mm^2 and the “TUNEL assay, Mean” value is reported as 20 positive cells/mm^2. For the same compound, the “number of apoptotic cells (result in words)” value with cardiac myocytes (by both TUNEL assay and caspase-3 staining) is “reduces the number of apoptotic cells, but does not prevent apoptosis completely”. Besides, the “degree of fibrosis (average grade)” value in test [1] is listed as 0.04 grade. Moreover, in test [2], the “DHE fluorescence, Mean” value was 26.7 Arbitrary units and the “superoxide production / oxidative stress” value was “prevented”.
